Test results published in US9096565B2, “Inhibitors of histone deacetylase” (MethylGene Inc., priority 2007, dated 2015).

Target: one or more of HDAC-4, HDAC-5, HDAC-6, HDAC-7, HDAC-8, HDAC-9, HDAC-10 and HDAC-11
Assay: Inhibition of histone deacetylase enzymatic activity (summary statement over isoforms)
Type: biochemical
Conditions: Table 3, selected examples; HDAC isoform not given
Outline: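 Activity was measured as deacetylation of the fluorogenic substrate Boc-Lys(trifluoroacetyl)-AMC over 20-30 min at 37 °C, after a 5 min room-temperature preincubation of enzyme with compound. Trypsin (1 mg/mL) with a reference HDAC inhibitor ended the reaction.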

SMILES	IC50
O=C(NO)C(c1ccccc1)c1ccc(OCCN2CCCC2)cc1 (stereo not shown) [Compound 5-96, N-hydroxy-2-phenyl-2-(4-(2-(pyrrolidin-1-yl)ethoxy)phenyl)acetamide]	< 1000 nM
O=CN(O)C(c1ccccc1)c1ccc(OCc2ccccc2)cc1 (stereo not shown) [Compound 5-98, N-((4-(benzyloxy)phenyl)(phenyl)methyl)-N-hydroxyformamide]	1000 to 15000 nM
COCCN1CCN(c2ccc(C(C(=O)NO)c3ccccc3)cc2)CC1 (stereo not shown) [Compound 5-100, N-hydroxy-2-(4-(4-(2-methoxyethyl)piperazin-1-yl)phenyl)-2-phenylacetamide]	< 1000 nM
CCN(CC)CC#Cc1ccc(C(C(=O)NO)c2ccccc2)cc1 (stereo not shown) [Compound 5-101, 2-(4-(3-(diethylamino)prop-1-ynyl)phenyl)-N-hydroxy-2-phenylacetamide]	< 1000 nM
CCCc1ccc(C(C(=O)NO)c2ccccc2)cc1 (stereo not shown) [Compound 5-102, N-hydroxy-2-phenyl-2-(4-propylphenyl)acetamide]	< 1000 nM
O=C(NO)C(c1ccccc1)N1CCN(c2ccccc2O)CC1 (stereo not shown) [Compound 5-103, N-hydroxy-2-(4-(2-hydroxyphenyl)piperazin-1-yl)-2-phenylacetamide]	1000 to 15000 nM
O=C(NO)C(c1ccccc1)c1ccc(N2CCCC2=O)cc1 (stereo not shown) [Compound 5-106, N-hydroxy-2-(4-(2-oxopyrrolidin-1-yl)phenyl)-2-phenylacetamide]	< 1000 nM
O=C(NO)C(c1ccccc1)c1ccc(N2Cc3ccccc3C2)cc1 (stereo not shown) [Compound 5-107, N-hydroxy-2-(4-(isoindolin-2-yl)phenyl)-2-phenylacetamide]	< 1000 nM
Nc1ccccc1NC(=O)c1ccc(C(C(=O)NO)c2ccccc2)cc1 (stereo not shown) [Compound 5-108, N-(2-aminophenyl)-4-(2-(hydroxyamino)-2-oxo-1-phenylethyl)benzamide]	< 1000 nM
COc1ccccc1COc1ccc(C(C(=O)NO)c2ccccc2)cc1 (stereo not shown) [Compound 5-109, N-hydroxy-2-(4-(2-methoxybenzyloxy)phenyl)-2-phenylacetamide]	< 1000 nM
O=C(NO)C(c1ccccc1)c1ccc(N2CCCCC2=O)cc1 (stereo not shown) [Compound 5-110, N-hydroxy-2-(4-(2-oxopiperidin-1-yl)phenyl)-2-phenylacetamide]	< 1000 nM
O=C(NO)C(c1ccccc1)c1ccc(Oc2ccccc2)cc1 (stereo not shown) [Compound 5-111, N-hydroxy-2-(4-phenoxyphenyl)-2-phenylacetamide]	< 1000 nM
O=C(NO)C(c1ccccc1)N1CCOCC1 (stereo not shown) [Compound 5-113b, N-hydroxy-2-morpholino-2-phenylacetamide]	1000 to 15000 nM
O=C(NO)C(Sc1ccccc1)c1ccc(-c2ccncc2)cc1 (stereo not shown) [Compound 5-116, N-hydroxy-2-(phenylthio)-2-(4-(pyridin-4-yl)phenyl)acetamide]	< 1000 nM
CC(=O)ONC(=O)C(c1ccccc1)c1ccc(N2CCOCC2)cc1 (stereo not shown) [Compound 5-117, N-acetoxy-2-(4-morpholinophenyl)-2-phenylacetamide]	1000 to 15000 nM
O=C(NO)C1(c2ccc(F)cc2)CCCC1 [Compound 5-120, 1-(4-fluorophenyl)-N-hydroxycyclopentanecarboxamide]	1000 to 15000 nM
O=C(NO)C(c1ccc(N2CCOCC2)cc1)c1cccc2ccccc12 (stereo not shown) [Compound 5-122, N-hydroxy-2-(4-morpholinophenyl)-2-(naphthalen-1-yl)acetamide]	< 1000 nM
Cc1cccc(C(C(=O)NO)c2ccc(N3CCOCC3)cc2)c1 (stereo not shown) [Compound 5-125, N-hydroxy-2-(4-morpholinophenyl)-2-m-tolylacetamide]	< 1000 nM
CCCC(=O)ONC(=O)C(c1ccccc1)c1ccc(N2CCOCC2)cc1 (stereo not shown) [Compound 5-128, N-(butyryloxy)-2-(4-morpholinophenyl)-2-phenylacetamide]	1000 to 15000 nM
COc1ccccc1C(C(=O)NO)c1ccc(N2CCOCC2)cc1 (stereo not shown) [Compound 5-129, N-hydroxy-2-(2-methoxyphenyl)-2-(4-morpholinophenyl)acetamide]	1000 to 15000 nM
Cc1[nH]c2ccccc2c1CN1CCC(Oc2ccc(C(C(=O)NO)c3ccccc3)cc2)CC1 (stereo not shown) [Compound 5-132, N-hydroxy-2-(4-(1-((2-methyl-1H-indol-3-yl)methyl)piperidin-4-yloxy)phenyl)-2-phenylacetamide]	< 1000 nM
O=C(NO)C(c1ccc(N2CCOCC2)cc1)c1ccccc1F (stereo not shown) [Compound 6-17, 2-(2-fluorophenyl)-N-hydroxy-2-(4-morpholinophenyl)acetamide]	< 1000 nM
Cc1ccc(S(=O)(=O)N2CCN(C3(C(=O)NO)CCc4ccccc43)CC2)cc1 (stereo not shown) [Compound 6-18, N-hydroxy-1-(4-(p-tolylsulfonyl)piperazin-1-yl)-2,3-dihydro-1H-indene-1-carboxamide]	1000 to 15000 nM
O=C(NO)C(c1ccc(N2CCOCC2)cc1)c1cccc(OC(F)(F)F)c1 (stereo not shown) [Compound 6-20, N-hydroxy-2-(4-morpholinophenyl)-2-(3-(trifluoromethoxy)phenyl)acetamide]	1000 to 15000 nM
O=C(NO)C(c1ccc(N2CCOCC2)cc1)c1ccccc1O (stereo not shown) [Compound 6-26, N-hydroxy-2-(2-hydroxyphenyl)-2-(4-morpholinophenyl)acetamide]	1000 to 15000 nM

Other lines, results leading:

IC50	SMILES
< 1000 nM	CN(C)CCN1CCN(c2ccc(C(C(=O)NO)c3ccccc3)cc2)CC1 (stereo not shown) [Compound 5-94, 2-(4-(4-(2-(dimethylamino)ethyl)piperazin-1-yl)phenyl)-N-hydroxy-2-phenylacetamide]
< 1000 nM	O=C(NO)C(c1ccccc1)c1ccc(CCCN2CCS(=O)(=O)CC2)cc1 (stereo not shown) [Compound 5-95]
< 1000 nM	O=C(NO)C(c1ccccc1)c1ccc(N2CCN(S(=O)(=O)c3ccccc3)CC2)cc1 (stereo not shown) [Compound 5-97, N-hydroxy-2-phenyl-2-(4-(4-(phenylsulfonyl)piperazin-1-yl)phenyl)acetamide]
< 1000 nM	CN1CCC(Oc2ccc(C(C(=O)NO)c3ccccc3)cc2)CC1 (stereo not shown) [Compound 5-99, N-hydroxy-2-(4-(1-methylpiperidin-4-yloxy)phenyl)-2-phenylacetamide]
< 1000 nM	O=C(NO)C(c1ccc(N2CCOCC2)cc1)c1cccs1 (stereo not shown) [Compound 5-104, N-hydroxy-2-(4-morpholinophenyl)-2-(thiophen-2-yl)acetamide]
< 1000 nM	O=C(NO)C(c1ccccc1)c1ccc(N2CCN(CC3CC3)CC2)cc1 (stereo not shown) [Compound 5-105, 2-(4-(4-(cyclopropylmethyl)piperazin-1-yl)phenyl)-N-hydroxy-2-phenylacetamide]
< 1000 nM	O=C(NO)C(c1ccc(N2CCOCC2)cc1)c1ccsc1 (stereo not shown) [Compound 5-112, N-hydroxy-2-(4-morpholinophenyl)-2-(thiophen-3-yl)acetamide]
< 1000 nM	COc1cccc(C(C(=O)NO)c2ccc(N3CCOCC3)cc2)c1 (stereo not shown) [Compound 5-113, N-hydroxy-2-(3-methoxyphenyl)-2-(4-morpholinophenyl)acetamide]
1000 to 15000 nM	CCC(=O)ONC(=O)C(c1ccccc1)c1ccc(N2CCOCC2)cc1 (stereo not shown) [Compound 5-114, 2-(4-morpholinophenyl)-2-phenyl-N-(propionyloxy)acetamide]
1000 to 15000 nM	Cc1ccc(C(C(=O)NO)c2ccc(N3CCOCC3)cc2)cc1 (stereo not shown) [Compound 5-115, N-hydroxy-2-(4-morpholinophenyl)-2-p-tolylacetamide]
< 1000 nM	O=C(NO)C(c1ccc(N2CCOCC2)cc1)c1cccc(F)c1 (stereo not shown) [Compound 5-118, 2-(3-fluorophenyl)-N-hydroxy-2-(4-morpholinophenyl)acetamide]
1000 to 15000 nM	O=C(NO)C1(c2ccc(F)cc2)CCCCC1 [Compound 5-119, 1-(4-fluorophenyl)-N-hydroxycyclohexanecarboxamide]
1000 to 15000 nM	CC(C)C(=O)ONC(=O)C(c1ccccc1)c1ccc(N2CCOCC2)cc1 (stereo not shown) [Compound 5-121, N-(isobutyryloxy)-2-(4-morpholinophenyl)-2-phenylacetamide]
< 1000 nM	O=C(NO)C(c1ccccc1)c1ccc(OC2CCN(Cc3ccccc3)CC2)cc1 (stereo not shown) [Compound 5-123, 2-(4-(1-benzylpiperidin-4-yloxy)phenyl)-N-hydroxy-2-phenylacetamide]
1000 to 15000 nM	O=C(NO)C(c1ccccc1)C1CCN(c2ncccn2)CC1 (stereo not shown) [Compound 5-126, N-hydroxy-2-phenyl-2-(1-(pyrimidin-2-yl)piperidin-4-yl)acetamide]
1000 to 15000 nM	O=C(NO)C(c1ccccc1)C1CCN(C(=O)c2ccccc2)CC1 (stereo not shown) [Compound 5-127, 2-(1-benzoylpiperidin-4-yl)-N-hydroxy-2-phenylacetamide]
< 1000 nM	O=C(NO)C(c1ccccc1)c1ccc(OC2CCN(CC3CC3)CC2)cc1 (stereo not shown) [Compound 5-130, 2-(4-(1-(cyclopropylmethyl)piperidin-4-yloxy)phenyl)-N-hydroxy-2-phenylacetamide]
< 1000 nM	O=C(NO)C(c1ccccc1)c1ccc(N2C[C@@H]3C[C@]3(c3ccc(Cl)c(Cl)c3)C2)cc1 (stereo partly drawn) [Compound 6-16, 2-(4-((1S,5R)-1-(3,4-dichlorophenyl)-3-azabicyclo[3.1.0]hexan-3-yl)phenyl)-N-hydroxy-2-phenylacetamide]
< 1000 nM	Cc1ccccc1C(C(=O)NO)c1ccc(N2CCOCC2)cc1 (stereo not shown) [Compound 6-19, N-hydroxy-2-(4-morpholionphenyl)-2-o-tolylacetamide]
1000 to 15000 nM	O=C(NO)C(c1ccc(N2CCOCC2)cc1)c1cccc(C(F)(F)F)c1 (stereo not shown) [Compound 6-21, N-hydroxy-2-(4-morpholinophenyl)-2-(3-(trifluoromethyl)phenyl)acetamide]
< 1000 nM	O=C(NO)C(c1ccc(N2CCOCC2)cc1)c1cccc(F)c1F (stereo not shown) [Compound 6-22]
< 1000 nM	O=C(NO)C(c1ccc(N2CCOCC2)cc1)c1cccc(O)c1 (stereo not shown) [Compound 6-23, N-hydroxy-2-(3-hydroxyphenyl)-2-(4-morpholinophenyl)acetamide]
1000 to 15000 nM	O=C(NO)C(c1ccc(N2CCOCC2)cc1)c1c(F)cccc1F (stereo not shown) [Compound 6-24, 2-(2,6-difluorophenyl)-N-hydroxy-2-(4-morpholinophenyl)acetamide]
< 1000 nM	CSc1cccc(C(C(=O)NO)c2ccc(N3CCOCC3)cc2)c1 (stereo not shown) [Compound 6-25, N-hydroxy-2-(3-(methylthio)phenyl)-2-(4-morpholinophenyl)acetamide]
